The text below walks through data of patent US12570675B2, “Boronic acid compounds” (LG CHEM, LTD., priority 2020, dated 2026).

The assay has as its target Proteasome chymotrypsin-like activity (S26 protein from RPMI8226 cells) (Homo sapiens, UniProt P28074). The class given is biochemical. The settings on record: S26 protein from RPMI8226 cell extract 2 ug/well, substrate 20 uM, 37° C., 90 minutes; read-out: Proteasome chymotrypsin-like activity inhibition IC50. Here is the method: The abilities to inhibit the proteasome activity of the compounds described in the Examples of the present invention and boronic acid drugs were evaluated as follows.
RPMI8226 cells, which is a multiple myeloma cell line, were cultured and then separated by a centrifuge, and washed twice with phosphate buffered saline (PBS). 20 mM of a tris-HCl (pH 8.0) buffer solution was added to the washed cells, and the cells were disrupted by a homogenizer and centrifuged to obtain S26 protein from the supernatant. Suc-Leu-Leu-Val-Tyr-AMC, for a fluorogenic substrate for the chymotrypsin-like activity of the proteasome, and Z-Leu-Leu-Glu-AMC, for a fluorogenic substrate for the caspase-like activity, were purchased from Calbiochem, EMD Millipore and used. Into each well of a 96-well plate (opaque, black round bottom), 20 ul of the S26 protein (final RPMI8226 cell extract concentration: 2 ug/well), 10 ul of S26 proteasome inhibitor serially diluted from 10 uM (final DMSO concentration: 0.5%), and 20 ul of the fluorogenic substrate for the proteasome chymotrypsin-like or caspase-like activity (final concentration: 20 uM) were added and mixed and allowed to react in a 37° C. incubator for 90 minutes. The fluorescence of the fluorogenic substrate was measured by FlexStation II Fluorometer (Molecular Devices). The fluorescence inhibited by the compound diluted at each concentration was measured as the relative percentage value for the amount obtained from the treatment only with the S26 protein and the fluorogenic substrate. IC50 (inhibitory concentration 50) was expressed in terms of a concentration that inhibits 50% of the maximum fluorescence induced by the fluorogenic substrate.

Chain of Proteasome chymotrypsin-like activity (S26 protein from RPMI8226 cells) (P28074 60-263 limits assumed): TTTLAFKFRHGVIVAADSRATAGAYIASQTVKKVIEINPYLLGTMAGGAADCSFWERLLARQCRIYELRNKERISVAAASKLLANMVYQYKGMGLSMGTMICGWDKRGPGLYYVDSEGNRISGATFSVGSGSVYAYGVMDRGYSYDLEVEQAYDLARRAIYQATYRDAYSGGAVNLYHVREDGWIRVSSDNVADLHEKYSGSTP

As usually defined, the IC50 is the concentration that gives 50% inhibition. Take `Cc1cccc(CC2(C(=O)N[C@@H](CC(C)C)B(O)O)CC(CNC(=O)c3ccnn3C(C)C)=NO2)c1` (stereo partly drawn) [Example 242, ((1R)-1-(3-((1-isopropyl-1H-pyrazol-5-carboxamido)methyl)-5-(3-methylbenzyl)-4,5-dihydroisoxazol-5-carboxamido)-3-methylbutyl)boronic acid]: the IC50 was below 10 nM.
For the molecule `Cc1ccc(F)cc1C(=O)NCC1=NOC(Cc2ccccc2)(C(=O)N[C@@H](CC(C)C)B(O)O)C1` (stereo partly drawn) [Example 111, ((1R)-1-(5-benzyl-3-((5-fluoro-2-methylbenzamido)methyl)-4,5-dihydroisoxazol-5-carboxamido)-3-methylbutyl)boronic acid], the IC50 was below 10 nM.
Consider `CC(C)C[C@H](NC(=O)C1(C(C)c2ccccc2)CC(CNC(=O)c2nccc3ccccc23)=NO1)B(O)O` (stereo partly drawn) [Example 136, ((1R)-1-(3-((isoquinolin-1-carboxamido)methyl)-5-(1-phenylethyl)-4,5-dihydroisoxazol-5-carboxamido)-3-methylbutyl)boronic acid], for which the 50% inhibitory concentration (IC50) is below 10 nM.
As to `CC(C)C[C@H](NC(=O)C1(Cc2ccccc2)CC(CNC(=O)c2cc(F)c(F)cc2Cl)=NO1)B(O)O` (stereo partly drawn) [Example 163, ((1R)-1-(5-benzyl-3-((2-chloro-4,5-difluorobenzamido)methyl)-4,5-dihydroisoxazol-5-carboxamido)-3-methylbutyl)boronic acid], the IC50 was below 10 nM.
Turning to `CC(C)C[C@H](NC(=O)C1ON=C(CNC(=O)c2nccc3ccccc23)C1C)B(O)O` (stereo partly drawn) [Example 65, ((1R)-1-(3-((isoquinolin-1-carboxamido)methyl)-4-methyl-4,5-dihydroisoxazol-5-carboxamido)-3-methylbutyl)boronic acid], the IC50 is below 250 nM.
With `Cc1nn(C(C)C)cc1C(=O)NCC1=NOC(Cc2ccccc2)(C(=O)N[C@@H](CC(C)C)B(O)O)C1` (stereo partly drawn) [Example 206, ((1R)-1-(5-benzyl-3-((1-isopropyl-3-methyl-1H-pyrazol-4-carboxamido)methyl)-4,5-dihydroisoxazol-5-carboxamido)-3-methylbutyl)boronic acid] the figure was below 10 nM; with `CC(C)C[C@H](NC(=O)C1CC(c2ccc(-c3ccccc3)nc2)=NO1)B(O)O` (stereo partly drawn) [Example 32, ((1R)-3-methyl-1-(3-(6-phenylpyridin-3-yl)-4,5-dihydroisoxazol-5-carboxamido)butyl)boronic acid], below 100 nM; with `CCOCC1(C(=O)N[C@@H](CC(C)C)B(O)O)CC(CNC(=O)c2nccc3ccccc23)=NO1` (stereo partly drawn) [Example 193, ((1R)-1-(5-(ethoxymethyl)-3-((isoquinolin-1-carboxamido)methyl)-4,5-dihydroisoxazol-5-carboxamido)-3-methylbutyl)boronic acid], below 10 nM.
On to `CC(C)C[C@H](NC(=O)C1(Cc2ccccc2)CC(CNS(=O)(=O)c2cccc3cccnc23)=NO1)B(O)O` (stereo partly drawn) [Example 144, ((1R)-1-(5-benzyl-3-((quinolin-8-sulfonamido)methyl)-4,5-dihydroisoxazol-5-carboxamido)-3-methylbutyl)boronic acid], for which the IC50 is below 10 nM.
As for `CC(C)C[C@H](NC(=O)C1(Cc2ccccc2)CC(CNC(=O)c2ccn(C(C)C)n2)=NO1)B(O)O` (stereo partly drawn) [Example 172, ((1R)-1-(5-benzyl-3-((1-isopropyl-1H-pyrazol-3-carboxamido)methyl)-4,5-dihydroisoxazol-5-carboxamido)-3-methylbutyl)boronic acid], the half-inhibitory concentration (IC50) was below 10 nM.
As to `Cc1cccc(COCC2=NOC(Cc3ccccc3)(C(=O)N[C@@H](CC(C)C)B(O)O)C2)c1` (some centres unmarked) [Example 270], the 50% inhibitory concentration (IC50) was below 10 nM.
For `Cc1cccc(CC2(C(=O)N[C@@H](CC(C)C)B(O)O)CC(CNC(=O)c3cc(C)nn3C(C)C)=NO2)c1` (stereo partly drawn) [Example 234, ((1R)-1-(3-((1-isopropyl-3-methyl-1H-pyrazol-5-carboxamido)methyl)-5-(3-methylbenzyl)-4,5-dihydroisoxazol-5-carboxamido)-3-methylbutyl)boronic acid] the value was below 10 nM.
For `CC(C)C[C@H](NC(=O)C1(Cc2ccccc2)CC(COCc2cccc(C#N)c2)=NO1)B(O)O` (some centres unmarked) [Example 264], the IC50 is below 10 nM.
With `COc1ccccc1C(=O)NCC1=NOC(C(=O)N[C@@H](CC(C)C)B(O)O)C1` (stereo partly drawn) [Example 103, ((1R)-1-(3-((2-methoxybenzamido)methyl)-4,5-dihydroisoxazol-5-carboxamido)-3-methylbutyl)boronic acid], the IC50 is below 50 nM.
For `CC(C)C[C@H](NC(=O)C1CC(c2ccc(Oc3ccccn3)cc2)=NO1)B(O)O` (stereo partly drawn) [Example 42, ((1R)-3-methyl-1-(3-(4-(pyridin-2-yloxy)phenyl)-4,5-dihydroisoxazol-5-carboxamido)butyl)boronic acid], the IC50 is below 250 nM.
For the molecule `Cc1nn(C(C)C)c(C(=O)NCC2=NOC(Cc3cccc(Cl)c3)(C(=O)N[C@@H](CC(C)C)B(O)O)C2)c1Cl` (stereo partly drawn) [Example 248, ((1R)-1-(3-((4-chloro-1-isopropyl-3-methyl-1H-pyrazol-5-carboxamido)methyl)-5-(3-chlorobenzyl)-4,5-dihydroisoxazol-5-carboxamido)-3-methylbutyl)boronic acid], the IC50 was below 10 nM.
For the molecule `CC(C)C[C@H](NC(=O)C1(C(F)(F)c2ccccc2)CC(CNC(=O)c2cccn3ccnc23)=NO1)B(O)O` (stereo partly drawn) [Example 156, ((1R)-1-(5-(difluoro(phenyl)methyl)-3-((imidazo[1,2-a]pyridin-8-carboxamido)methyl)-4,5-dihydroisoxazol-5-carboxamido)-3-methylbutyl)boronic acid], the IC50 was below 25 nM.
For `CC(C)C[C@H](NC(=O)C1CC(c2cccc3ccccc23)=NO1)B(O)O` (stereo partly drawn) [Example 19, ((1R)-3-methyl-1-(3-(naphthalen-1-yl)-4,5-dihydroisoxazol-5-carboxamido)butyl)boronic acid] the value was below 100 nM.
Take `CC(C)C[C@H](NC(=O)C1(Cc2cscn2)CC(CNC(=O)c2cccn3ccnc23)=NO1)B(O)O` (stereo partly drawn) [Example 150, ((1R)-1-(3-((imidazo[1,2-a]pyridin-8-carboxamido)methyl)-5-(thiazol-4-ylmethyl)-4,5-dihydroisoxazol-5-carboxamido)-3-methylbutyl)boronic acid]: the IC50 was below 10 nM.
For `CC(C)C[C@H](NC(=O)C1(Cc2ccccc2)CC(CNC(=O)c2cccn3cnnc23)=NO1)B(O)O` (some centres unmarked) [Example 305], the half-maximal inhibitory concentration (IC50) was below 10 nM.
For `COc1cccc(C(=O)NCC2=NOC(Cc3ccccc3)(C(=O)N[C@@H](CC(C)C)B(O)O)C2)c1` (some centres unmarked) [Example 284], the IC50 was below 10 nM.
For `CC(C)C[C@H](NC(=O)C1(Cc2ccccc2)CC(CNC(=O)C2CCCc3ccccc32)=NO1)B(O)O` (stereo partly drawn) [Example 108, ((1R)-1-(5-benzyl-3-((1,2,3,4-tetrahydronaphthalen-1-carboxamido)methyl)-4,5-dihydroisoxazol-5-carboxamido)-3-methylbutyl)boronic acid] the value was below 10 nM; for `CC(C)C[C@H](NC(=O)C1(Cc2cccc(Cl)c2)CC(CNC(=O)c2ccnn2C(C)C)=NO1)B(O)O` (stereo partly drawn) [Example 250, ((1R)-1-(5-(3-chlorobenzyl)-3-((1-isopropyl-1H-pyrazol-5-carboxamido)methyl)-4,5-dihydroisoxazol-5-carboxamido)-3-methylbutyl)boronic acid], below 10 nM.
As for `Cc1nn(C)cc1C(=O)NCC1=NOC(Cc2ccccc2)(C(=O)N[C@@H](CC(C)C)B(O)O)C1` (stereo partly drawn) [Example 226, ((1R)-1-(5-benzyl-3-((1,3-dimethyl-1H-pyrazol-4-carboxamido)methyl)-4,5-dihydroisoxazol-5-carboxamido)-3-methylbutyl)boronic acid], the concentration for half-maximal inhibition (IC50) is below 25 nM.
With `CC(C)C[C@H](NC(=O)C1(Cc2ccccc2)CC(CNC(=O)c2cc(-c3ccccn3)nn2C(C)C)=NO1)B(O)O` (stereo partly drawn) [Example 221, ((1R)-1-(5-benzyl-3-((1-isopropyl-3-(pyridin-2-yl)-1H-pyrazol-5-carboxamido)methyl)-4,5-dihydroisoxazol-5-carboxamido)-3-methylbutyl)boronic acid] the figure was below 10 nM.
As to `CC(=O)Nc1cccc(C(=O)NCC2=NOC(Cc3ccccc3)(C(=O)N[C@@H](CC(C)C)B(O)O)C2)c1` (some centres unmarked) [Example 320], the IC50 was below 10 nM.
Turning to `CC(C)C[C@H](NC(=O)C1CC(c2cc3ccccc3cn2)=NO1)B(O)O` (stereo partly drawn) [Example 22, ((1R)-1-(3-(isoquinolin-3-yl)-4,5-dihydroisoxazol-5-carboxamido)-3-methylbutyl)boronic acid], the IC50 is below 250 nM.
For `COc1cccc(CC2(C(=O)N[C@@H](CC(C)C)B(O)O)CC(CNC(=O)c3cccn4ccnc34)=NO2)c1` (stereo partly drawn) [Example 135, ((1R)-1-(3-((imidazo[1,2-a]pyridin-8-carboxamido)methyl)-5-(3-methoxybenzyl)-4,5-dihydroisoxazol-5-carboxamido)-3-methylbutyl)boronic acid], the IC50 was below 10 nM.
On to `CC(C)C[C@H](NC(=O)C1(Cc2ccccc2)CC(CNC(=O)CCc2ccccc2)=NO1)B(O)O` (stereo partly drawn) [Example 110, ((1R)-1-(5-benzyl-3-((3-phenylpropanamido)methyl)-4,5-dihydroisoxazol-5-carboxamido)-3-methylbutyl)boronic acid], for which the IC50 is below 25 nM.
